Experiments:
[1] = target: T1, 5-HT3 receptor (Cavia porcellus, UniProt O70212); experiment: contractile effects on the isolated colon from a guinea pig (5-HT3 receptor agonistic activity); set-up: species or system guinea pig (male Hartley); settings: for Emax: guinea pig, read-out: Max. response; for Relative potency: relative EC50 value, based on that of 5-HT as standard value (1)
T1 construct: Distal colons were excised from male Hartley guinea pigs; from tissue; host or cells: distal colon strips of male Hartley guinea pigs
T1 sequence (O70212 24-490 limits assumed): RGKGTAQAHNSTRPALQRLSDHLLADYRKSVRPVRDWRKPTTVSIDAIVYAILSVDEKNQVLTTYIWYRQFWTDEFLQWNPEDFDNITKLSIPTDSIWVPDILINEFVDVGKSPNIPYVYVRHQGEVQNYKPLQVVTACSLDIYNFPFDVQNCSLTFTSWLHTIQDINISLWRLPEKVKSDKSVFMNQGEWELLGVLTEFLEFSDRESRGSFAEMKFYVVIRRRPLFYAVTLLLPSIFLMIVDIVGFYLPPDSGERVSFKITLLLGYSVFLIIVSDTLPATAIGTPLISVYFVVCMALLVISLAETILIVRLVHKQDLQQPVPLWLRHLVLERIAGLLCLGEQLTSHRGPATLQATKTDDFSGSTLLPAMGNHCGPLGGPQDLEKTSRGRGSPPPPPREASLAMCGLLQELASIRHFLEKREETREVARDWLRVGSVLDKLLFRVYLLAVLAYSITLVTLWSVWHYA
Description: Distal colons were excised from male Hartley guinea pigs (500 to 800 g) to prepare strips of about 20 mm.
Each strip was longitudinally suspended in an organ bath, and contractile response was isometrically measured.

[2] = system: 5-HT3 receptor; experiment: Facilitation of defecation in rat; format: in vivo, rat (male Wistar); settings: 10 mg/kg s.c.; number of feces excreted for four hours after administration
Protocol: In the male Wistar rat (200-300 g), facilitating effects on defecation by stimulation of 5-HT3 receptor [Miyata et al., J. Pharmacol. Exp. Ther., 261, 297 (1992)] were studied. The compound (10 mg/kg) was subcutaneously administered to the rat and the number of feces excreted for four hours after the administration was counted.

Row | SMILES | Emax [1] [%] | Relative potency [1] | facilitating effect on defecation [2]
1 | NCCc1nc2c(s1)Cc1ccccc1-2.O=C(O)/C=C/C(=O)O [Ex. 9, 2-(2-aminoethyl)-8H-indeno[1,2-d]thiazole fumarate] | 75 | 1/2 | –
2 | O=C(O)/C=C/C(=O)O.c1ccc(-c2csc(C3CCCNC3)n2)cc1 (centres unmarked) [Ex. 46, 4-Phenyl-2-(3-piperidyl)thiazole fumarate] | 52 | 1/2 | –
3 | c1csc(-c2csc(CC3CCCCN3)n2)c1 (centres unmarked) [Ex. 59, 2-[[4-(2-Thienyl)-2-thiazolyl]methyl]piperidine hemifumarate] | 45 | 1/3 | –

More lines, main results first:

Row | Emax [1] [%] | Relative potency [1] | SMILES | facilitating effect on defecation [2]
4 | 57 | – | c1ccc2c(c1)Cc1sc([C@@H]3C[C@@H]4CCCN4C3)nc1-2 (relative stereo) [Ex. 66, (3R*,5S*)-3-(8H-indeno[1,2-d]thiazol-2-yl)-1-azabicyclo[3.3.0]octane hemifumarate] | –
5 | 77 | – | c1ccc2c(c1)Cc1sc(C3CCNC3)nc1-2 (centres unmarked) [Ex. 52, 2-(3-pyrrolidinyl)-8H-indeno[1,2-d]thiazole] | exhibited facilitating effect on defecation
6 | 51 | – | c1ccc2c(c1)Cc1sc(CCN3CCCCC3)nc1-2 [Ex. 71, 2-(2-piperidinoethyl)-8H-indeno[1,2-d]thiazole] | –
7 | 23 | – | NC1(CCc2nc3c(s2)Cc2ccccc2-3)CCCCC1 [Ex. 70, 2-[2-(1-aminocyclohexyl)ethyl]-8H-indeno[1,2-d]thiazole] | –
